The values that follow come from PubChem BioAssay (NCI).

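Five compound concentrations were applied to cells in 96-well plates for 48 hours; endpoints were derived by simple linear interpolation of the resulting dose-response curve. GI50 marks 50% less growth. TGI marks complete inhibition of growth.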

Some test systems named below: COLO 205 colon; K-562 leukemia; M14 melanoma; NCI-H226 lung; OVCAR-8 ovarian; SNB-75 CNS; CAKI-1 renal; MDA-MB-231 breast; NCI/ADR-RES ovarian; PC-3 prostate.
Experiment in all cases: NCI tumour cell line growth inhibition, 48 h

As to `CCOC(=O)c1c(-c2ccccc2)oc(-c2ccccc2)c1C(=O)OCC`, the TGI in the test on COLO 205 colon, in the test with K-562 leukemia, with M14 melanoma, in the test on NCI-H226 lung, in the test on OVCAR-8 ovarian and with SNB-75 CNS was > 100 µM each time.
Consider `Cc1oc2c(C)c3oc(=O)cc(C)c3cc2c1CNC(=O)[C@@H]1OCCOCCOCCOCCOCCOC1C(=O)O` (some centres not stated), for which the TGI was > 100 µM in the test with CAKI-1 renal; > 100 µM in the test on COLO 205 colon; > 100 µM in the test on K-562 leukemia; 27.5 µM with M14 melanoma; > 100 µM with NCI-H226 lung; > 100 µM in the test with OVCAR-8 ovarian. In addition, in the test with SNB-75 CNS, the TGI is > 100 µM.
As for `CC1(Cl)CC2OC3(Br)C=CC(C)(O)C2(CC1Br)C3(C)C` (configuration not stated), the TGI with CAKI-1 renal, in the test with COLO 205 colon, in the test with K-562 leukemia, in the test with M14 melanoma, in the test with NCI-H226 lung and with OVCAR-8 ovarian was > 100 µM each time. Moreover, in the test on SNB-75 CNS, the TGI is > 100 µM.
Turning to `N#C/C(=N\Nc1ccc(Cl)cc1)C(=O)Nc1cc(-c2ccccc2)nn1-c1ccccc1`, the GI50 in the test with COLO 205 colon is 2.07 µM; in the test with K-562 leukemia, 1.72 µM; in the test on M14 melanoma, 3.7 µM; in the test with MDA-MB-231 breast it was 2.86 µM; in the test on NCI/ADR-RES ovarian, 3.09 µM; in the test with OVCAR-8 ovarian it was 2.96 µM. For the same molecule, in the test with PC-3 prostate, the GI50 is 2.4 µM. Moreover, the TGI in the test with COLO 205 colon is 4.51 µM; in the test with K-562 leukemia, > 100 µM; in the test with M14 melanoma, > 100 µM; in the test on MDA-MB-231 breast it was > 100 µM; in the test with NCI/ADR-RES ovarian it was > 100 µM; with OVCAR-8 ovarian, > 100 µM. For the same molecule, the TGI in the test on PC-3 prostate was > 100 µM.
For the molecule `Cc1cc(Cl)cc2c(N=Nc3ccccc3[N+](=O)[O-])c(O)[nH]c12`, the TGI in the test on CAKI-1 renal, with COLO 205 colon, with K-562 leukemia, in the test with M14 melanoma, in the test on MDA-MB-231 breast and in the test with PC-3 prostate was > 100 µM in each case. Further, the TGI with SNB-75 CNS is > 100 µM.
With `CC[O-].CC[O-].O=C([CH-]C(=O)c1cccnc1)c1ccccc1.O=C([CH-]C(=O)c1cccnc1)c1ccccc1.[Ti+4]`, the GI50 in the test with CAKI-1 renal is > 100 µM; in the test with K-562 leukemia, 36.2 µM; with M14 melanoma, 60.4 µM; in the test on NCI-H226 lung, 68.1 µM; with OVCAR-8 ovarian, 26.2 µM; in the test with SNB-75 CNS, 19.9 µM. Moreover, the TGI in the test on CAKI-1 renal is > 100 µM; with K-562 leukemia, > 100 µM; in the test with M14 melanoma, > 100 µM; with NCI-H226 lung, > 100 µM; with OVCAR-8 ovarian it was > 100 µM; with SNB-75 CNS, 69 µM.
Take `O=S(=O)(N/N=C/c1ccc(Cl)c(Cl)c1)c1ccccc1`: the TGI was > 100 µM in the test with CAKI-1 renal; 39.6 µM in the test on COLO 205 colon; > 100 µM with K-562 leukemia; > 100 µM with M14 melanoma; > 100 µM in the test on NCI-H226 lung; > 100 µM in the test on OVCAR-8 ovarian. The TGI in the test on SNB-75 CNS is > 100 µM.
`O=C1C2C(C(=O)[N]1[Hg][c]1cccs1)C1(Cl)C(Cl)=C(Cl)C2(Cl)C1(Cl)Cl` (configuration not stated): the GI50 in the test on CAKI-1 renal is 1.29 µM; in the test with COLO 205 colon, 1.22 µM; in the test with K-562 leukemia it was 0.291 µM; in the test with M14 melanoma it was 1.14 µM; in the test with NCI-H226 lung, 6.88 µM; with NCI/ADR-RES ovarian it was 2.07 µM. Also, the GI50 in the test with PC-3 prostate is 1.72 µM; in the test on SNB-75 CNS it was 1.37 µM. In addition, the TGI was found to be 2.64 µM in the test with CAKI-1 renal; 2.65 µM in the test with COLO 205 colon; 3.41 µM in the test with K-562 leukemia; 2.68 µM in the test with M14 melanoma; 37.8 µM in the test with NCI-H226 lung; 4.8 µM in the test with NCI/ADR-RES ovarian. For the same molecule, the figures for the TGI in the test on PC-3 prostate and in the test with SNB-75 CNS were 4.18 µM and 4.81 µM, respectively.
Take `C/C=C/C1=C(Cl)C(=O)[C@@H](Cl)[C@@]1(O)C(=O)OC`: the TGI came to 8.4 µM in the test on CAKI-1 renal; 3.22 µM with COLO 205 colon; 14.4 µM in the test with K-562 leukemia; 11.9 µM in the test on M14 melanoma; 15.7 µM in the test on NCI-H226 lung; 6.23 µM with NCI/ADR-RES ovarian. For the same molecule, the TGI in the test on OVCAR-8 ovarian was 6.45 µM; with SNB-75 CNS, 32.8 µM.
With `O=c1ccc(N=Nc2ccc([N+](=O)[O-])cc2)ccc1O`, the GI50 was 7.79 µM with CAKI-1 renal; 21.7 µM in the test with COLO 205 colon; 3.83 µM in the test with K-562 leukemia; 7.19 µM in the test on M14 melanoma; 9.64 µM in the test with MDA-MB-231 breast; 12.7 µM in the test on NCI-H226 lung. Besides, the GI50 in the test on OVCAR-8 ovarian is 3.97 µM; in the test on PC-3 prostate, 5.15 µM; with SNB-75 CNS, 10.8 µM. Moreover, the TGI was > 100 µM in the test on CAKI-1 renal; > 100 µM with COLO 205 colon; > 100 µM with K-562 leukemia; > 100 µM in the test on M14 melanoma; 71.2 µM in the test on MDA-MB-231 breast; > 100 µM with NCI-H226 lung. Moreover, the TGI with OVCAR-8 ovarian, with PC-3 prostate and in the test with SNB-75 CNS was > 100 µM each time.
As to `CN(C)CCN(C)CC1COC(C)(C)O1` (configuration not stated), the TGI with CAKI-1 renal, in the test on COLO 205 colon, with K-562 leukemia, in the test on M14 melanoma, in the test on NCI-H226 lung and in the test on OVCAR-8 ovarian was > 100 µM throughout. The TGI in the test with SNB-75 CNS is > 100 µM.
Turning to `Cc1cc(NCCCNc2ccnc3cc(Cl)ccc23)nc(N2CCN(C)CC2)n1`, the GI50 was 3.12 µM with CAKI-1 renal; 2.28 µM with COLO 205 colon; 1.86 µM in the test with K-562 leukemia; 1.94 µM with M14 melanoma; 2.07 µM in the test with MDA-MB-231 breast; 3.39 µM in the test with NCI-H226 lung. The GI50 was 17.5 µM in the test with NCI/ADR-RES ovarian, 7.76 µM in the test with OVCAR-8 ovarian and 13 µM with SNB-75 CNS. In addition, the TGI with CAKI-1 renal was determined as 11.2 µM; with COLO 205 colon it was 6.29 µM; in the test with K-562 leukemia it was 11.7 µM; in the test on M14 melanoma it was 3.61 µM; with MDA-MB-231 breast, 15.8 µM; with NCI-H226 lung it was 22 µM. Also, the TGI in the test with NCI/ADR-RES ovarian is 61.7 µM; in the test on OVCAR-8 ovarian it was 44 µM; in the test on SNB-75 CNS, 34.4 µM.
